The record followed here is patent US8748109B2, “Method for the detection of organ or tissue injury” (priority 2009, dated 2014).

Residues, ends and D or L forms follow the SMILES beside them. *: point of attachment. Cbz = O=C(OCc1ccccc1)*; CH2F = FC* Where only a bound is given, the exact number is not on record here.

One data set relates to ALT. Put plainly: Serum alanine transaminase (ALT) activity. Conditions: for Serum Biomarker elevation ALT activity: APAP 530 mg/kg i.p., CD-1 mice. The class given is in vivo, mouse.
The test system of another data set is caspase-3. Nature of the data set: Caspase-3 western blotting of liver cytosol. Format: in vivo, mouse. Further details: key to Caspase 3 processing (WB): (+) indicates positive detection of DNA laddering or processing of caspase-3 by western blot (WB). The note with it: for Caspase 3 processing (WB): hepatic, APAP 530 mg/kg i.p., CD-1 mice. The procedure: (§1) Caspase-3 western blotting was carried out as described previously (30) on mouse liver cytosol fractions prepared from snap frozen livers. DNA was isolated from snap frozen livers using the Sigma-Aldrich GeneElute kit according to the manufacturer's instructions. DNA laddering was visualised through ethidium bromide staining following separation on a 1% agarose gel. […] The number of cleaved caspase-3 positive cells (cytoplasmic staining) was evaluated semi-quantitatively (− no positive cells; + scattered positive cells; ++ moderate number of positive cells, +++ numerous positive cells).
Background: Immunoblotting shows a protein as a band on a membrane.

Data set [1] concerns HMGB1. Nature of the data set: Total serum HMGB1 by ELISA. Format: in vivo, mouse. Conditions: for Serum Biomarker elevation Total HMGB1: APAP 530 mg/kg i.p., CD-1 mice. Background: An ELISA detects its analyte on a solid surface through an enzyme-linked reagent.
Data set [2] relates to HMGB1. Put plainly: Serum hypo- and hyper-acetylated HMGB1 by LC-MS/MS (relative values). The class given is in vivo, mouse. Conditions: APAP 530 mg/kg, mice, post dose, 0-24 hr time course. Here is the method: Overnight immunoprecipitations (IP) of serum K18 and HMGB1 (5 μg antibody and protein G separation) were subjected to SDS-PAGE. Protein bands were excised from Coomassie Blue-stained gels, destained by incubation with 50% acetonitrile/50 mM ammonium bicarbonate followed by vacuum drying. Gel pieces were rehydrated in 50 mM ammonium bicarbonate containing 40 ng/μL modified trypsin (K18) or GluC (HMGB1) and incubated for 16 hr at 37° C. Peptides were extracted by incubation with 2 changes of 60% acetonitrile/1% trifluoroacetic acid and the resulting supernatants were again dried. Extracts were desalted using C18 ZipTips according to the manufacturer's instructions and reconstituted in 5% acetonitrile/0.1% trifluoroacetic acid. For LC-MS/MS analysis, samples were delivered into a QSTAR Pulsar i hybrid mass spectrometer (Applied Biosystems) by automated in-line liquid chromatography (integrated LC-Packings System, 5 mm C18 nano-precolumn and 75 μm×15 cm C18 PepMap column (Dionex, Calif., USA) via a nano-electrospray source head and 10 μm inner diameter PicoTip (New Objective, USA). A gradient from 5% acetonitrile/0.05% trifluoroacetic acid (v/v) to 48% acetonitrile/0.05% trifluoroacetic acid (v/v) in 60 min was applied at a flow rate of […], MS and MS/MS spectra were acquired automatically in positive ion mode using information-dependent acquisition (Analyst, Applied Biosystems). Database searching was performed using Protein Pilot 2 (Applied Biosystems) with the latest version of the SwissProt database, with the confidence level set at 80%, and with biological modifications allowed. Quantification of murine serum full length K18 and caspase dependent K18 fragments was accomplished through construction of standard curves generated with synthetic peptide standards spiked into and could be recovered from control serum and compared to immunoassay (17). The full length K18 standard ([…]) was designed to span the caspase 3, 7, 9 cleavage site, whereas the abbreviated peptide ([…]) is only derived from K18 fragments with the caspase cleavage site cut (limit of detection; 300 fmol/ml. coefficient of variation; <10%). HMGB1 and its hyper-acetylated derivative were quantified by spectral counting of the peptide peak, since no synthetic standards were available, and are consequently presented only as relative values and compared to total levels determined by ELISA according to the manufacturer's instructions (limit of detection; 0.1 ng/ml. coefficient of variation; <10%).

The test system of the next data set is DNA laddering. Nature of the data set: Hepatic DNA laddering (agarose gel). The class given is in vivo, mouse. Further details: key: (+) indicates positive detection of DNA laddering or processing of caspase-3 by western blot (WB). Here is the method: as §1
The subject of the next data set is HMGB-1. The text has this:
(A) Schematic overview of the location of cysteine 106 within the cytokine domain of murine HMGB-1 which is characterized by MS/MS. […] MS/MS and western figures are representative of 6 mice per group.

The subject of data set [3] is Total hepatic glutathione (GSH+GSSG). Nature of the data set: Determination of hepatic glutathione levels. Format: in vivo, mouse. Further details: key to GSH depletion: (+) indicates significant; (−) non-significant hepatic GSH depletion compared to control animals. Conditions: for GSH depletion: hepatic, APAP 530 mg/kg i.p., CD-1 mice. The procedure:
Total hepatic glutathione (GSH+GSSG) levels were determined as described previously (29).

The test system of a further data set is male CD-1 mice. Put plainly: Histological assessment of hepatotoxicity (H&E liver sections, hepatocyte loss score). The note with it: APAP co-dosed with Z-VAD.fmk, 5 hr.
A further data set has as its system apoptotic markers. Put plainly: Effect of Z-VAD.fmk on APAP-induced apoptotic markers (DNA laddering, pro-caspase 3 processing, serum caspase cleaved K18). Conditions: Z-VAD.fmk 10 mg/kg i.v. 15 min pre-APAP (530 mg/kg; 5 hr), compared with APAP alone. Format: in vivo, mouse. The procedure: as §1
Overnight immunoprecipitations (IP) of serum K18 and HMGB1 (5 μg antibody and protein G separation) were subjected to SDS-PAGE. […] Quantification of murine serum full length K18 and caspase dependent K18 fragments was accomplished through construction of standard curves generated with synthetic peptide standards spiked into and could be recovered from control serum and compared to immunoassay (17). […] HMGB1 and its hyper-acetylated derivative were quantified by spectral counting of the peptide peak, since no synthetic standards were available, and are consequently presented only as relative values and compared to total levels determined by ELISA according to the manufacturer's instructions (limit of detection; 0.1 ng/ml. coefficient of variation; <10%).

Setting [4] is: APAP 530 mg/kg, mice, 3-24 hr time course.
Setting [5] is: APAP 530 mg/kg, mice, 10 hr post treatment.

As to `CC(=O)Nc1ccc(O)cc1` [APAP, Acetaminophen], the “Serum Biomarker elevation ALT activity” value in the data set with ALT (3 hr), with ALT (5 hr), with ALT (10 hr), in the data set with ALT (15 hr), with ALT (20 hr) and with ALT (24 hr) was “+” each time. Further, the “increased serum ALT activity, time course” value in the data set on ALT (setting [4]) is recorded as “observed over the entire time course”. For the same compound, the “caspase 3 processing” value with caspase-3 (setting [5]) is recorded as “no evidence”. The “Caspase 3 processing (WB)” value in the data set with caspase-3 (3 hr), with caspase-3 (5 hr) and in the data set with caspase-3 (10 hr) was “+” throughout. Further, the “Serum Biomarker elevation Total HMGB1” value in the data set with HMGB1 [1] (3 hr) is “+”; in the data set with HMGB1 [1] (5 hr) it was “+”; in the data set with HMGB1 [1] (10 hr) it was “+”; with HMGB1 [1] (15 hr), “+”; in the data set on HMGB1 [1] (20 hr), “−”; in the data set with HMGB1 [1] (24 hr), “−”. Also, the “last time point with serum HMGB1 elevation” value with HMGB1 [1] (setting [4]) is not above 15 h. For the same compound, the “time of first significant elevation of necrosis-associated (hypo-acetylated) serum HMGB1” value with HMGB1 [2] came out at 3 h. Further, in the data set with HMGB1 [2], the “time of first significant increase of immune cell derived (hyper-acetylated) serum HMGB1” value was 5 h. The “time of peak of immune cell derived (hyper-acetylated) serum HMGB1” value in the data set with HMGB1 [2] amounted to 15 h. In the data set with HMGB1 [2], the “time of return to control levels of immune cell derived (hyper-acetylated) serum HMGB1” value was not above 24 h. Besides, the “DNA laddering” value with DNA laddering (setting [5]) was “no evidence”; in the data set with DNA laddering (hepatic, APAP 530 mg/kg i.p., CD-1 mice, 3 hr) it was “+”; with DNA laddering (hepatic, APAP 530 mg/kg i.p., CD-1 mice, 5 hr), “+”. The “serum molecular form of HMGB-1 present” value in the data set with HMGB-1 (fasted mice dosed with APAP (530 mg/kg; 5 h)) was “the only serum molecular form of HMGB-1 present was the reduced form”. The “predominant form of HMGB-1 in sera” value with HMGB-1 (fed mice dosed with APAP (530 mg/kg; 5 h)) is “oxidized, immune-tolerant form”. In the data set with HMGB-1 (mouse, in vivo), the toxicity entry is “displaying toxicity”. In addition, the GSH depletion entry in data set [3] (3 hr) is recorded as “+”; in data set [3] (5 hr) it was “+”; in data set [3] (10 hr) it was “−”; in data set [3] (15 hr), “−”; in data set [3] (20 hr) it was “−”; in data set [3] (24 hr) it was “−”.

Consider `COC(=O)C[C@H](NC(=O)[C@H](C)NC(=O)[C@@H](NC(=O)OCc1ccccc1)C(C)C)C(=O)CF` [Z-VAD.fmk] (Cbz-Val-Ala-Asp(OMe)-CH2F), for which the “serum ALT level compared with APAP alone” value in the data set with ALT (Z-VAD.fmk and APAP (530 mg/kg; 5 hr)) was “increased”. Further, in the data set on male CD-1 mice, the “apoptotic hepatocyte death by histology and immunohistology for cleaved caspase-3” value is recorded as “no evidence”. In addition, in the data set with male CD-1 mice (score 0-5, higher than APAP alone (p<0.05)), the “Histological scoring of centrilobular hepatocyte loss” value is given as 2-3. Besides, in the data set on HMGB-1 (Z-VAD.fmk in APAP-treated, fed mice), the “molecular form of HMGB1 detected” value was “only the reduced molecular form”. For the same compound, in [3] (Z-VAD.fmk pre-treatment, APAP 530 mg/kg, 5 hr), the “effect on APAP-mediated GSH depletion” value was “no effect”. For the same compound, the “detection of apoptotic markers in APAP dosed mice” value with apoptotic markers is given as “completely inhibited”.
